Assay results reported in patent US6610750B1, “Treatment of osteoarthritis” (Laboratoires Negma, priority 2000, dated 2003).

Legend:
[1] = tested on: prostaglandin biosynthesis; details: cited from earlier work
[2] = tested on: IL-1 and other cytokines (IL-6 and TNF); details: several studies in vitro and with animal models of osteoarthritis; cited from earlier work
osteoarthritis = details: after the start of the treatment; cited from earlier work
solubility of diacerein = format: physicochemical
[3] = tested on: patients with severe to moderate hip osteoarthritis; experiment: three-year, randomized, double-blind, placebo-controlled study of radiological progression of hip osteoarthritis; format: in vivo, human
Text: In order to further explore the potential usefulness of diacerein in the treatment of osteoarthritis, and to closely monitor the relevance of the effects of the treatment by using an accurate radiographic technique, the inventors carried out a 3-year, randomized, double-blind and placebo-controlled multicenter clinical trial in 507 patients with hip osteoarthritis. The unexpected result of the study was that diacerein has a beneficial effect as a structure-modifying treatment for osteoarthritis, as evidenced radiographically by a reduction of the destructive progression of hip osteoarthritis. The results of this study are reported in Dougados M., Nguyen M., Berdah L., Lequesne M., Mazières B., Vignon E. 1999; “Evaluation of the structural (radiological) effect of diacerein in osteoarthritis of the hip: a 3-year placebo controlled study”, Osteoarthritis and Cart 7, Suppl. A: 123, and are by reference thereto incorporated herein in their entirety.
In a three-year, randomized, double-blind, placebo-controlled study, 507 patients with severe to moderate hip osteoarthritis were assigned to receive either diacerein, 50 mg twice daily, or an identical placebo. The primary criterion of radiological progression of osteoarthritis was defined by a reduction in the joint space width or at least 0.5 mm during the study. The annual joint space narrowing rate (mm/year) was also determined in the patients who completed the treatment.
A total of 482 patients who had at least two radiographs were evaluated. Baseline characteristics of the 241 patients in each group were similar. In the placebo group, 62.7% of the patients had radiological progression, compared to 53.9% in the diacerein group (log-rank test: p=0.037). Treatment was followed for three years by 269 patients, among whom 55.1% in the placebo group and 41.2% in the diacerein group had radiological progression (log-rank test: p=0.007).

CC(=O)Oc1cccc2c1C(=O)c1c(OC(C)=O)cc(C(=O)O)cc1C2=O [diacerein, diacetylrhein]
inhibitory effect on the phospholiphase, cyclo-oxygenase or lipo-oxygenase pathways (prostaglandin biosynthesis) [1]: no inhibitory effect
inhibition of IL-1 and other cytokines (IL-6 and TNF) [2]: inhibit
time of onset of the effect (osteoarthritis): ≥ 4 weeks
solubility in alcohol (solubility of diacerein; alcohol): virtually insoluble
solubility in water (solubility of diacerein; water): virtually insoluble
annual joint space narrowing rate ([3]; 269 patients who completed three years, diacerein 50 mg twice daily, placebo 0.23±0.23, p=0.042): 0.18±0.25 mm/year
patients with radiological progression (reduction in joint space width of at least 0.5 mm) ([3]; 269 patients who followed treatment for three years, diacerein 50 mg twice daily, placebo 55.1%, log-rank p=0.007): 41.2%
patients with radiological progression (reduction in joint space width of at least 0.5 mm) ([3]; 482 patients with at least two radiographs, 241 per group, diacerein 50 mg twice daily, placebo 62.7%, log-rank p=0.037): 53.9%
structure-modifying effect as compared to placebo ([3]; over the three-year period): statistically significant structure-modifying effect
